The text below walks through data of ChEMBL document CHEMBL1132511, “Stereospecific synthesis of a GS 4104 metabolite: determination of absolute stereochemistry and influenza neuraminidase inhibitory activity” (Bioorg Med Chem Lett, 1999).

Assay [1] has as its target Neuraminidase (Influenza A virus (A/Puerto Rico/8/1934(H1N1)), UniProt P03468). Put plainly: In vitro inhibitory activity against influenza A neuraminidase using enzymatic assay.
In the next assay the test system is Influenza B virus. Put plainly: In vitro inhibitory activity against influenza B neuraminidase using enzymatic assay. The format is functional.

Sequence of Neuraminidase (Influenza A virus (A/Puerto Rico/8/1934(H1N1)), UniProt P03468) (P03468 whole entry): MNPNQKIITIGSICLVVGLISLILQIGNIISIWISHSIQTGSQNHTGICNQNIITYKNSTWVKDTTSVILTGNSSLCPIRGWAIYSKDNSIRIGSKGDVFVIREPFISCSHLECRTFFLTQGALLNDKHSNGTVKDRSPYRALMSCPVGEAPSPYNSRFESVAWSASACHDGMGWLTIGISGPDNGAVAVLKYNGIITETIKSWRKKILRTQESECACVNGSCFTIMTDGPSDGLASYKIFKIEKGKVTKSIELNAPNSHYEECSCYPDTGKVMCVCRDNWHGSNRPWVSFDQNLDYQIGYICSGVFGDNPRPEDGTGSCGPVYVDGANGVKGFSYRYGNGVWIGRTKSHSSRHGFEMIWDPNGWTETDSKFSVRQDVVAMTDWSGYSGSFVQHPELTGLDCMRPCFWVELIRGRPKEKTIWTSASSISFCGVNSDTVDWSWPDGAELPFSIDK

In assay [1], `CC[C@H](CC(=O)O)O[C@@H]1C=C(C(=O)O)C[C@H](N)[C@H]1NC(C)=O` returned an IC50 of 1150 nM.
With `CC[C@@H](CCO)O[C@@H]1C=C(C(=O)O)C[C@H](N)[C@H]1NC(C)=O`, the IC50 in assay [1] turned out to be 30 nM; with Influenza B virus it was 85 nM.
Compound `CC[C@@H](CC(=O)O)O[C@@H]1C=C(C(=O)O)C[C@H](N)[C@H]1NC(C)=O` yielded a half-maximal inhibitory concentration (IC50) in assay [1] of 450 nM.
With `CC[C@H](CCO)O[C@@H]1C=C(C(=O)O)C[C@H](N)[C@H]1NC(C)=O`, the IC50 in assay [1] came out at 40 nM; in the assay on Influenza B virus, 400 nM.
On to `CCC(CC)O[C@@H]1C=C(C(=O)O)C[C@H](N)[C@H]1NC(C)=O` [OSELTAMIVIR CARBOXYLATE], for which the IC50 with Influenza B virus is 4 nM.

For orientation: IC50 means the concentration that gives 50% inhibition. High values mean lower potency, low ones higher potency.
